Values joined by “and” are separate entries in the source; they are usually repeats but may differ in a detail not shown here. Equal entries are not always repeated. Toxic doses and inconclusive results are not listed. No stated cut-off is given here; in the data, active means T/C of 150% or more; inactive means T/C below 125%.
System: L1210 leukemia ip in BDF1 mice, survival T/C
Assay: NCI In Vivo Anticancer Drug Screen. Data for tumor model L1210 Leukemia (intraperitoneal) in B6D2F1 (BDF1) mice
Details: endpoint: mean survival time, higher = longer survival
How it was run: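 Transplanted-tumor mice were given test agent; controls received vehicle only. Survival readings from the two groups were divided (treated over control).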

[1] = dose: 100.0 mg/kg/injection, schedule: Q04DX003 (ip), vehicle: saline with Tween-80
[2] = dose: 200.0 mg/kg/injection, schedule: Q04DX003 (ip), vehicle: saline with Tween-80
[3] = dose: 100.0 mg/kg/injection, schedule: Q01DX009 (ip), vehicle: Klucel (hydroxypropylcellulose) (HPC)
[4] = dose: 200.0 mg/kg/injection, schedule: Q01DX009 (ip), vehicle: Klucel (hydroxypropylcellulose) (HPC)
[5] = dose: 400.0 mg/kg/injection, schedule: Q01DX009 (ip), vehicle: Klucel (hydroxypropylcellulose) (HPC)
[6] = dose: 100.0 mg/kg/injection, schedule: Q01DX001 (ip), vehicle: carboxymethylcellulose (CMC)
[7] = dose: 200.0 mg/kg/injection, schedule: Q01DX001 (ip), vehicle: carboxymethylcellulose (CMC)
[8] = dose: 400.0 mg/kg/injection, schedule: Q01DX001 (ip), vehicle: carboxymethylcellulose (CMC)
[9] = dose: 25.0 mg/kg/injection, schedule: Q01DX009 (ip), vehicle: saline with Tween-80
[10] = dose: 50.0 mg/kg/injection, schedule: Q01DX009 (ip), vehicle: saline with Tween-80
[11] = dose: 100.0 mg/kg/injection, schedule: Q01DX001 (ip), vehicle: other
[12] = dose: 200.0 mg/kg/injection, schedule: Q01DX001 (ip), vehicle: other
[13] = dose: 400.0 mg/kg/injection, schedule: Q01DX001 (ip), vehicle: other
[14] = dose: 100.0 mg/kg/injection, schedule: Q04DX003 (ip), vehicle: Klucel (hydroxypropylcellulose) (HPC)
[15] = dose: 200.0 mg/kg/injection, schedule: Q04DX003 (ip), vehicle: Klucel (hydroxypropylcellulose) (HPC)
[16] = dose: 400.0 mg/kg/injection, schedule: Q04DX003 (ip), vehicle: Klucel (hydroxypropylcellulose) (HPC)
[17] = dose: 100.0 mg/kg/injection, schedule: Q01DX001 (ip), vehicle: Klucel (hydroxypropylcellulose) (HPC)
[18] = dose: 200.0 mg/kg/injection, schedule: Q01DX001 (ip), vehicle: Klucel (hydroxypropylcellulose) (HPC)
[19] = dose: 400.0 mg/kg/injection, schedule: Q01DX001 (ip), vehicle: Klucel (hydroxypropylcellulose) (HPC)
[20] = dose: 100.0 mg/kg/injection, schedule: Q04DX003 (ip), vehicle: saline
[21] = dose: 200.0 mg/kg/injection, schedule: Q04DX003 (ip), vehicle: saline
[22] = dose: 400.0 mg/kg/injection, schedule: Q04DX003 (ip), vehicle: saline

Measured: T/C

O=C(O)c1cc([N+](=O)[O-])ccc1Oc1cccc(Cl)c1
inactive: dose: 75.0 mg/kg/injection, schedule: Q01DX001 (ip), vehicle: saline 96 % of control | dose: 150.0 mg/kg/injection, schedule: Q01DX001 (ip), vehicle: saline 95 % of control | dose: 300.0 mg/kg/injection, schedule: Q01DX001 (ip), vehicle: saline 96 % of control

NC(=O)C[n+]1cccc(C(=O)Nc2ccc(Cl)cc2)c1
inactive: [1] 98 % of control | [2] 101 % of control

O=C(NC1CCCCC1)N(C1CCCCC1)C1CCCCC1
inactive: [3] 90 % of control | [4] 103 % of control | [5] 92 % of control

Cn1c(=O)c2[nH]cnc2n(C)c1=O
inactive: dose: 18.25 mg/kg/injection, schedule: Q01DX Z (ip), vehicle: carboxymethylcellulose (CMC) 105 % of control | dose: 36.5 mg/kg/injection, schedule: Q01DX Z (ip), vehicle: carboxymethylcellulose (CMC) 107 % of control | dose: 63.0 mg/kg/injection, schedule: Q01DX Z (ip), vehicle: carboxymethylcellulose (CMC) 92 % of control | [6] 98 % of control | dose: 126.0 mg/kg/injection, schedule: Q01DX Z (ip), vehicle: carboxymethylcellulose (CMC) 98 % of control | [7] 98 % of control | [8] 96 % of control

COc1ccc(NC(=S)NN)cc1
inactive: [9] 103 % of control | [10] 89 % of control | dose: 100.0 mg/kg/injection, schedule: Q01DX009 (ip), vehicle: saline with Tween-80 95 % of control

Cc1ccc(S(=O)(=O)N(Cc2ccc([N+](=O)[O-])cc2)c2ccccc2)cc1
inactive: [6] 103 % of control | [7] 105 % of control | [8] 100 % of control

CC1C/C(=C\NC(N)=O)C(=O)O1 (configuration not stated)
inactive: dose: 100.0 mg/kg/injection, schedule: Q01DX009 (ip), vehicle: water 96 % of control | dose: 100.0 mg/kg/injection, schedule: Q04DX003 (ip), vehicle: water 94 % of control | dose: 200.0 mg/kg/injection, schedule: Q01DX009 (ip), vehicle: water 100 % of control | dose: 200.0 mg/kg/injection, schedule: Q04DX003 (ip), vehicle: water 89 % of control | dose: 400.0 mg/kg/injection, schedule: Q01DX009 (ip), vehicle: water 102 % of control | dose: 400.0 mg/kg/injection, schedule: Q04DX003 (ip), vehicle: water 96 % of control

Cc1ccc(S(=O)(=O)N(CCCc2c(C)nc(N)nc2Nc2ccccc2)c2ccccc2)cc1
inactive: dose: 25.0 mg/kg/injection, schedule: Q01DX001 (ip), vehicle: saline with Tween-80 108 % of control | dose: 50.0 mg/kg/injection, schedule: Q01DX001 (ip), vehicle: saline with Tween-80 92 % of control | dose: 100.0 mg/kg/injection, schedule: Q01DX001 (ip), vehicle: saline with Tween-80 93 % of control

Oc1ccccc1C=Nc1ccccc1S.[Co]
inactive: [11] 105 % of control | [12] 100 % of control | [13] 105 % of control

Cc1ccc(C(=O)Cl)cc1S(=O)(=O)F
inactive: [9] 95 % of control | dose: 25.0 mg/kg/injection, schedule: Q04DX003 (ip), vehicle: saline with Tween-80 96 % of control | [10] 104 % of control | dose: 50.0 mg/kg/injection, schedule: Q04DX003 (ip), vehicle: saline with Tween-80 100 % of control | [1] 96 % of control | [2] 94 % of control and 102 % of control

CCOC(=O)NCC(CCN1CCCC1)(c1cccc2ccccc12)C(C)C (configuration not stated)
inactive: dose: 12.5 mg/kg/injection, schedule: Q01DX009 (ip), vehicle: Klucel (hydroxypropylcellulose) (HPC) 104 % of control | dose: 12.5 mg/kg/injection, schedule: Q04DX003 (ip), vehicle: Klucel (hydroxypropylcellulose) (HPC) 87 % of control | dose: 25.0 mg/kg/injection, schedule: Q01DX009 (ip), vehicle: Klucel (hydroxypropylcellulose) (HPC) 102 % of control | dose: 50.0 mg/kg/injection, schedule: Q01DX009 (ip), vehicle: Klucel (hydroxypropylcellulose) (HPC) 101 % of control | dose: 50.0 mg/kg/injection, schedule: Q04DX003 (ip), vehicle: Klucel (hydroxypropylcellulose) (HPC) 95 % of control

CCSC1=C(N2CC2)C(=O)C(SCC)=C(N2CC2)C1=O
inactive: dose: 150.0 mg/kg/injection, schedule: Q04DX003 (ip), vehicle: saline 96 % of control | dose: 225.0 mg/kg/injection, schedule: Q04DX003 (ip), vehicle: saline 96 % of control

CSc1ccc(OC(=O)NC2CCCCC2)cc1C
inactive: [3] 92 % of control | [14] 93 % of control | [4] 97 % of control | [15] 111 % of control | [5] 93 % of control | [16] 95 % of control

CC(=O)Nc1c(Br)cc2c(c1Br)Cc1cc(N=Cc3ccc4c(c3)OCO4)ccc1-2
inactive: [11] 100 % of control | [12] 94 % of control | [13] 103 % of control

CC(C)c1cccc(C(C)C)c1OC(=O)Nc1ccccc1
inactive: [17] 101 % of control | [3] 97 % of control | dose: 100.0 mg/kg/injection, schedule: Q04DX002 (ip), vehicle: Klucel (hydroxypropylcellulose) (HPC) 95 % of control and 102 % of control | [14] 116 % of control | [18] 88 % of control | [4] 98 % of control and 87 % of control | dose: 200.0 mg/kg/injection, schedule: Q04DX002 (ip), vehicle: Klucel (hydroxypropylcellulose) (HPC) 97 % of control and 108 % of control | [15] 100 % of control | [19] 87 % of control | [5] 103 % of control and 113 % of control | dose: 400.0 mg/kg/injection, schedule: Q04DX002 (ip), vehicle: Klucel (hydroxypropylcellulose) (HPC) 102 % of control and 90 % of control | [16] 108 % of control

CSc1ncc(CO)c(Nc2ccc(F)cc2)n1
inactive: [20] 93 % of control | [21] 100 % of control | [22] 98 % of control

c1ccc(-c2nc[nH]c2-c2ccccc2)cc1
inactive: [3] 96 % of control | [14] 105 % of control | [4] 91 % of control | [15] 100 % of control | [5] 96 % of control | [16] 100 % of control

COC(=O)C1(C)CCC(c2ccc(OC)cc2)CC1=O (configuration not stated)
inactive: dose: 100.0 mg/kg/injection, schedule: Q01DX009 (ip), vehicle: saline 93 % of control | [20] 92 % of control | dose: 200.0 mg/kg/injection, schedule: Q01DX009 (ip), vehicle: saline 88 % of control | [21] 95 % of control | dose: 400.0 mg/kg/injection, schedule: Q01DX009 (ip), vehicle: saline 90 % of control | [22] 88 % of control

CCOC(=O)c1ccc(N2C(N)=NC(N)=NC2(C)C)cc1
inactive: [20] 101 % of control

CN1CC2(CCN(CC3COc4ccccc4O3)CC2)OC1=O (configuration not stated)
inactive: dose: 50.0 mg/kg/injection, schedule: Q01DX001 (ip), vehicle: Klucel (hydroxypropylcellulose) (HPC) 93 % of control | [17] 103 % of control | [18] 117 % of control | [19] 107 % of control
